# US10016494B2, “Antigenic epitopes from EBV gp350/220 and uses thereof” (VALORISATION-HSJ, LIMITED PARTNERSHIP, priority 2014, dated 2018)
# Experiments:
# [1] = tested on: P3HR1 virus super-infection of Raji cells; assay: EBV antibody neutralization assay; format: cell-based, Epstein-Barr virus; conditions: FIG. 2B, log10 dilutions of 0.01 to 10 μg/ml
# Procedure: Antibody neutralization potency was measured as the inhibition of EBV early antigen (EA) expression upon super-infection of Raji cells by P3HR1 virus (33). Mixtures of concentrated virus (2×10^4 EA-inducing units) and serial dilutions of purified antibody were incubated in a final volume of 0.1 ml for 60 min at 37° C. prior to the addition of 5×10^4 Raji cells. The Raji cell-virus mixture was further incubated for 60 min at 37° C. followed by resuspension in RPMI medium and a 2-day incubation at 37° C. The number of Raji cells expressing EA after cell culture was measured by immunofluorescence, and relative antibody neutralization potency per μg of antibody was calculated.
# [2] = tested on: anti-gp350 monoclonal antibody 72A1; assay: Peptide ELISA: 72A1 antibody binding to plate-coated gp350 mimetic peptides; design: species or system murine; conditions: for binding to the 72A1 antibody: FIG. 4A, peptide coated on ELISA plate; for Notes: reactivity with the 72A1 monoclonal antibody: Table III
# Procedure: (§1) Gp350 mimetic peptides that were synthesized and HPLC purified to >70% (Elim Biopharmaceuticals®, Hayward, Calif.) were suspended at 2.5 μg/mL in 0.1M carbonate buffer pH 9 prior to their overnight incubation at 4° C. as 100 μL aliquots in a 96 well ELISA plate (Ultident®, St. Laurent, QC). Peptide-coated plates were washed 4× with PBS:0.05% Tween-20®, blocked with 1% BSA:PBS and incubated for a minimum of 2 h at room temperature (RT) with anti-gp350 monoclonal antibody 72A1, or the isotype-matched, background-control anti-LMP1 monoclonal antibody S-12 and 1:100 dilutions of commercial intravenous gamma globulin (IVIG) (18). Bound monoclonal antibodies were detected using biotin-conjugated goat anti-mouse IgG, biotin-conjugated anti-human IgG and horseradish peroxidase (HRP)-conjugated streptavidin (Jackson Immunoresearch Laboratories®, West Grove, Pa.) in conjunction with 3,3′,5,5′-Tetramethylbenzidine substrate (TMB solution, Bioshop®, Burlington ON). HRP enzyme activity was stopped with an equal volume of 1N HCl and wells read at 450nm.
# [3] = tested on: 72A1 antibody recognition of gp350 protein; assay: Competition ELISA: 72A1 pre-incubated with gp350 mimetic peptides in solution, then tested for binding to gp350; design: species or system Epstein-Barr virus; conditions: for inhibition of 72A1 antibody recognition of gp350 protein: FIG. 4B, peptide allowed to interact with 72A1 in solution
# Procedure: Whole cell ELISA was performed using CEM cells or CEM cells expressing gp350. The cells were washed with PBS, suspended at 1×10^6 cells/mL in PBS and 40 μL aliquots were added to each ELISA plate well. Plates were vacuum-dried prior to cell fixation with cold methanol. Plates were washed with PBS and wells blocked in 1% BSA:PBS prior to a 1 h exposure to monoclonal antibody or monoclonal antibody that was pre-incubated for 2 or more hours with gp350 mimetic peptides. Bound monoclonal antibodies were detected using biotin-conjugated goat anti-mouse IgG, HRP-conjugated streptavidin as outlined above.
# Although peptide 3 contained the amino acid sequence EID shown by mutation to result in a loss of 72A1 binding (31), the lack of noted binding by peptide 3 may have been due to inappropriate adsorption to the ELISA plate that interfered with antibody binding. To avoid potential ELISA plate interference, gp350 mimetic peptides were allowed to interact with 72A1 antibody in solution, and later the antibody was tested for its ability to bind to native gp350 protein.
# [4] = tested on: human IgG (IVIG, human EBV immune serum); assay: Peptide ELISA with commercial intravenous gamma globulin (IVIG); format: binding; conditions: FIG. 5, thirty-nine lots of IVIG, ± SD
# Procedure: as §1
# Although p2 was recognized by the murine monoclonal antibody 72A1 and was capable of generating antibodies that recognized the gp350 neutralizing epitope in mice, it is unknown whether EBV-positive human sera would recognize this gp350 mimetic peptide. The determination of human IgG reactivity against each of the three peptides could serve as a surrogate indicator of whether the gp350 mimetic peptides would be immunogenic or capable of generating an anti-gp350 antibody response. […] This was followed by p1 at levels of 1.83±0.07 pg/ml and by p3 with antibody levels of 1.7±0.06 pg/ml.
# [5] = Peptide immunization of mice: anti-peptide IgG by ELISA; format: in vivo, Balb/C female mice; conditions: FIG. 7A, KLH-coupled peptide 100 μg i.p., after third immunization, ± SEM
# Procedure: (§2) Balb/C female mice were immunized intraperitoneally with 100 μg of keyhole limpet hemocyanin (KLH)-coupled with gp350 mimetic peptide (Sigma Conjugation Kit) emulsified in Sigma Adjuvant System (Sigma-Aldrich). Mice were re-injected every 21 days and blood was drawn 14 days after the second injection. Following the third immunization, IgG levels of peptide reactivity were measured by ELISA.
# (§3) Balb/C female mice were immunized intraperitoneally with gp350 mimetic peptides as described in Example 1 above. Following the third immunization, IgG levels of peptide reactivity were measured by ELISA. All mice generated antibodies to their respective peptides with average antibody concentrations (pg/ml) of 97±46 SEM, 122±67 and 981±577 for p1, p2 and p3, respectively (FIG. 7A).
# native gp350 = assay: Peptide immunization of mice: serum recognition of native gp350; format: in vivo, Balb/C female mice; conditions: FIG. 7B, same mice sera, ± SEM
# Procedure: as §2, §3
# [6] = tested on: 72A1 recognition of gp350; assay: Sera from peptide-immunized mice blocking biotinylated-72A1 binding to gp350; format: in vivo, Balb/C female mice; conditions: FIG. 7C, pooled serum from peptide immunized mice, 1:50 dilution
# Procedure: Histogram of biotinylated-72A1 binding to gp350 protein that was pre-exposed to mouse preimmune (preimm) serum, pooled serum from peptide immunized mice (1:50 dilution), or 1 μg/ml 72A1, or 0.5 mg/ml BSA. Average OD±SEM was derived from three separate experiments. P-values≤0.05 are indicated (*).
# as §2, §3
# [7] = FIG. 4C, altered domain compared to peptide 2
Substance,binding to the 72A1 antibody [2],anti-peptide antibody levels in IVIG [4] [pg/mL],average anti-peptide antibody concentration [5] [pg/mL],average antibody concentration recognizing native gp350 (native gp350) [pg/mL],other results
"72A1 antibody: well-known mouse monoclonal antibody (IgG1 isotype), EBV gp350 neutralizing, commercially available",,,,,block of P3HR1 EBV super-infection of Raji cells [1]: block P3HR1 virus superinfection of Raji cells
"AAAAAAAAQNPVYLIPETVPYIKWDN (SEQ ID NO: 33) (Epstein-Barr virus) [Peptide 2.2, Ala substitution of domain 1 of peptide 2]",,,,,"binding activity compared to parental peptide 2 ([2]; FIG. 6B, peptide 2 = 100%): 56%; reduction in recognition of p2 by 72A1 antibody [3, 7]: 50%"
"DDRTLQLAAAPVAALIPAVVPAIAWAA (SEQ ID NO: 34) (Epstein-Barr virus) [Peptide 2.3, Domain 1-LA-altered Domain 2]",,,,,"binding to the 72A1 monoclonal antibody ([2]; FIGS. 6A and 6B, alanine substitutions): did not bind; recognition of p2 by 72A1 antibody after domain alteration [3, 7]: abolished recognition"
DDRTLQLAQNPVYLIPETVPYIKWDN (SEQ ID NO: 4) (Epstein-Barr virus) [Peptide 2],strongly bound,2.16 ± 0.08,122 ± 67,1.3 ± 0.9,inhibition of 72A1 antibody recognition of gp350 protein [3]: 78%; inhibition of 72A1 recognition of gp350 by antisera [6]: 38%
"EEKSAEAAQQPADAAPDSAPDAKMDQ (SEQ ID NO: 32) (Epstein-Barr virus) [Peptide 2.1, 72a1 positive mimeotope]",,,,,Notes: reactivity with the 72A1 monoclonal antibody [2]: 72a1 positive
"GSAKPGNGSYFASVKTEMLGNEID (SEQ ID NO: 27) (Epstein-Barr virus) [Peptide 3, gp350 mimetic peptide encompassing the central area of the purported gp350 neutralizing domain]",did not bind,1.7 ± 0.06,981 ± 577,4.1 ± 2.4,inhibition of 72A1 antibody recognition of gp350 protein [3]: 8%; inhibition of 72A1 recognition of gp350 by antisera [6]: 23%
"SKAPESTTTSPTLNTTGFADY (SEQ ID NO: 31) (Epstein-Barr virus) [Peptide 1, reference compound]",did not bind,1.83 ± 0.07,97 ± 46,0.015 ± 0.01,"ELISA activity with 72A1 ([2]; FIG. 6A, value subtracted from the peptide 2 series before plotting): 0.355 OD; Notes: reactivity with the 72A1 monoclonal antibody [2]: 72A1 non-reactive"
